According to patent publication US8592452B2, “Cyclic amine compound” (Takeda Pharmaceutical Company Limited, priority 2005, dated 2013):
Substitutions are numbered along the chain they refer to. Where two headings read alike, the source gives them in different places.

What was measured:
[1] = target: T1, AR having LNCaP-type mutation (Homo sapiens, UniProt P10275, T878A); experiment: AR binding inhibitory test (LNCaP-type), radiolabeled mibolerone; details: 100 nM compound, 3 nM radiolabeled mibolerone, 4° C. 3 hr
T1 sequence (P10275 1-920 T878A): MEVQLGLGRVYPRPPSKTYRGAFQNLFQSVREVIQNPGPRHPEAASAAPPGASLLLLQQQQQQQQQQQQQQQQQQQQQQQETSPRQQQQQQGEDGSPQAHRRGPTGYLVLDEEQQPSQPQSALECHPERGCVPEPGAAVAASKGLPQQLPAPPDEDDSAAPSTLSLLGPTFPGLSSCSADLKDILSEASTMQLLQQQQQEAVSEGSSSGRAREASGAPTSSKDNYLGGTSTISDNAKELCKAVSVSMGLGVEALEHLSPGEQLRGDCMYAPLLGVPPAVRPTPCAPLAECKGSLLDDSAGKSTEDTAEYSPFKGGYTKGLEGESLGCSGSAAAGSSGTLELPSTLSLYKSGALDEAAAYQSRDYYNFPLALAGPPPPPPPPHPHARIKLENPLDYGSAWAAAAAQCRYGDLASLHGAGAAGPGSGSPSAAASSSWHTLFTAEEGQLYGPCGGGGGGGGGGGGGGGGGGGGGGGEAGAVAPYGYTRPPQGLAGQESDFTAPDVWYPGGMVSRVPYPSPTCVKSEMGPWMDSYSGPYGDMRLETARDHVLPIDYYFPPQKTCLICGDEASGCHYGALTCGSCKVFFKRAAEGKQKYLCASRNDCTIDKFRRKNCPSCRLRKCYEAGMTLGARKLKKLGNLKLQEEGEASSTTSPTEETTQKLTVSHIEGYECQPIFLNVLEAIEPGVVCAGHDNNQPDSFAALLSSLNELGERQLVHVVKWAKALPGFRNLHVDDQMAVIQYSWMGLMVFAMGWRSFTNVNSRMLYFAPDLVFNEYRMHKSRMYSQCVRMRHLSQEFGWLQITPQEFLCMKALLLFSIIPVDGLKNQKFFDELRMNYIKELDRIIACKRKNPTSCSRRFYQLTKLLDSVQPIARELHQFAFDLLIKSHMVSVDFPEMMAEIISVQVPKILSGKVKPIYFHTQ
Experimental: (§1) To a solution containing a wild-type androgen receptor (AR) or AR having LNCaP-type mutation were added 3 nM radiolabeled mibolerone and 100 nM compound. After the solution was incubated at 4° C. for 3 hr, B (Bound)/F (Free) separation was performed by the dextran/charcoal method. The label count of B was measured, and the inhibitory rate of the compound was calculated.

[2] = target: T2, wild-type androgen receptor (AR) (Homo sapiens, UniProt P10275); experiment: AR binding inhibitory test (wild-type), radiolabeled mibolerone; details: 100 nM compound, 3 nM radiolabeled mibolerone, 4° C. 3 hr, read-out: Inhibitory rate (%) at 100 nM wild-type
T2 sequence (P10275 1-920): T1 sequence (P10275 1-920 T878A) with A878T
Experimental: as §1

[3] = tested on: human prostate cancer cell line LNCaP-FGC; experiment: PSA production test in human prostate cancer cell line; type: cell-based; details: 3 days, vehicle as 0, 350 nM testosterone as 100, test compound final concentration 0.1-1000 nM (concentration not given)
Experimental: The human prostate cancer cell line LNCaP-FGC was plated on a 96 well plate at 5,000 cells/100 μL/well. The next day, a test compound (final concentration 0.1-1000 nM), or a vehicle (control) or testosterone (final concentration 0.35-350 nM) was added thereto, and the culture supernatant was recovered 3 days after the drug addition. The concentration of PSA (Prostate Specific Antigen) produced in an androgen-dependent manner in the culture supernatant was measured by ELISA. The PSA production promotion rate by the test compound was calculated with vehicle addition group as 0 and 350 nM testosterone addition group as 100.

AR (wild-type) [4] = target: T3, AR (wild-type) (Homo sapiens, UniProt P10275); experiment: Reporter assay system using Cos7 cell, luciferase under androgen responsive promoter of two tandem PSA promoter regions; type: cell-based; details: 100 nM compound, 24 hr, luciferase activity with 1 μM 5α-dihydrotestosterone as 100
T3 construct: expressed in transfected cells; host or cells: Cos-7
T3 sequence (P10275 1-920): T1 sequence (P10275 1-920 T878A) with A878T
Experimental: Cos-7 (5,000,000 cells) were sown in a flask (150 cm^2), and cultured in a culture medium (DMEM medium containing 10% Dextran Charcoal (DCC)-Fetal Bovine Serum (FBS) and 2 mM glutamine) for 24 hr. A vector DNA containing AR gene, and a vector DNA prepared by binging luciferase gene at the downstream of an androgen responsive promoter prepared by ligating two PSA promoter regions in tandem were co-transfected by the liposome method. After culture for 2 hr, the cells were harvested, 10,000 cells were plated on a 96 well plate and cultured for 3 hr, after which 1 μM of 5α-dihydrotestosterone or 100 nM of a compound was added thereto. After culture for 24 hr, luciferase activity was determined. The induction rate by the compound was determined with the luciferase activity induced by addition of 1 μM of 5α-dihydrotestosterone as 100.

AR (wild-type) [5] = target: T3, AR (wild-type); experiment: Reporter assay system using Cos7 cell, luciferase under MMTV-derived androgen responsive promoter; type: cell-based; details: 100 nM compound, 24 hr, luciferase activity with 1 μM 5α-dihydrotestosterone as 100
Experimental: Cos-7 (5,000,000 cells) were sown in a flask (150 cm^2), and cultured in a culture medium (DMEM medium containing 10% Dextran Charcoal (DCC)-Fetal Bovine Serum (FBS) and 2 mM glutamine) for 24 hr. A vector DNA containing AR gene, and a vector DNA prepared by binging luciferase gene at the downstream of an MMTV (Mouse Mammary Tumor Virus)-derived androgen responsive promoter were co-transfected by the liposome method. After culture for 2 hr, the cells were harvested, 10,000 cells were plated on a 96 well plate and cultured for 3 hr, after which 1 μM of 5α-dihydrotestosterone or 100 nM of a compound was added. After culture for 24 hr, luciferase activity was determined. The induction rate by the compound was determined with the luciferase activity induced by addition of 1 μM of 5α-dihydrotestosterone as 100.

[6] = Table 3, read-out: Inhibitory rate (%) at 100 nM LNCaP-type
[7] = Table 6, read-out: Inhibitory rate (%) at 100 nM LNcap-type

With `Cc1c(N2CC[C@H](C(C)(C)O)[C@@H]2C)ccc(C#N)c1Cl` [Compound 2, 2-chloro-4-[(2S,3S)-3-(1-hydroxy-1-methylethyl)-2-methylpyrrolidin-1-yl]-3-methylbenzonitrile] the inhibition at 0.1 µM [1, 6] was 99%, the inhibition at 0.1 µM ([2]; Table 3) was 99% and the “PSA production promotion rate (%)” value [3] was 103%. The “Induction rate (%) at 100 nM wild-type” value (AR (wild-type) [4]) was 71%.

With `CC(C)[C@H]1[C@@H](O)CCN1c1ccc(C#N)c(C(F)(F)F)c1` [Compound 82, 4-[(2S,3S)-3-hydroxy-2-isopropylpyrrolidin-1-yl]-2-(trifluoromethyl)benzonitrile] the inhibition at 0.1 µM [1, 7] was 97%, the inhibition at 0.1 µM ([2]; Table 6) was 98% and the “Induction rate (%) at 100 nM wild-type” value (AR (wild-type) [5]) was 90%.

In the case of `C[C@H]1[C@@H](C(C)(C)O)CCN1c1ccc(C#N)cc1C(F)(F)F` [Compound 80, 4-[(2S,3S)-3-(1-hydroxy-1-methylethyl)-2-methylpyrrolidin-1-yl]-3-(trifluoromethyl)benzonitrile], the inhibition at 0.1 µM [1, 7] is reported as 95%, the inhibition at 0.1 µM ([2]; Table 6) is reported as 97% and the “Induction rate (%) at 100 nM wild-type” value (AR (wild-type) [5]) is reported as 22%.

With `C[C@H]1[C@@H](C(C)(C)O)CCN1c1ccc(C#N)c(Cl)c1` [Compound 3, 2-chloro-4-[(2S,3S)-3-(1-hydroxy-1-methylethyl)-2-methylpyrrolidin-1-yl]benzonitrile] the inhibition at 0.1 µM [1, 6] was 99%, the inhibition at 0.1 µM ([2]; Table 3) was 98% and the “PSA production promotion rate (%)” value [3] was 81%. The “Induction rate (%) at 100 nM wild-type” value (AR (wild-type) [4]) was 57%.

For `C[C@H]1[C@@H](C(C)(C)O)CCN1c1ccc(C#N)c(Cl)c1F` [Compound 53, 2-chloro-3-fluoro-4-[(2S,3S)-3-(1-hydroxy-1-methylethyl)-2-methylpyrrolidin-1-yl]benzonitrile], the inhibition at 0.1 µM [1, 7] was 98%, the inhibition at 0.1 µM ([2]; Table 6) was 98% and the “Induction rate (%) at 100 nM wild-type” value (AR (wild-type) [5]) was 33%.

For `C[C@H]1[C@@H](C(C)(C)O)CCN1c1ccc(C#N)c(Br)c1` [Compound 71, 2-bromo-4-[(2S,3S)-3-(1-hydroxy-1-methylethyl)-2-methylpyrrolidin-1-yl]benzonitrile], the inhibition at 0.1 µM [1, 7] was 97%, the inhibition at 0.1 µM ([2]; Table 6) was 99% and the “Induction rate (%) at 100 nM wild-type” value (AR (wild-type) [5]) was 31%.

In the case of `C[C@H]1[C@@H](C(C)(C)O)CCN1c1ccc(C#N)c(Cl)c1Cl` [Compound 75, 2,3-dichloro-4-[(2S,3S)-3-(1-hydroxy-1-methylethyl)-2-methylpyrrolidin-1-yl]benzonitrile], the inhibition at 0.1 µM [1, 7] is reported as 99%, the inhibition at 0.1 µM ([2]; Table 6) is reported as 99% and the “Induction rate (%) at 100 nM wild-type” value (AR (wild-type) [5]) is reported as 60%.
